Results published in patent US8222218B2, “Cyclopropanated carbohydrates” (Seton Hall University, priority 2008, dated 2012).
Like-named read-outs stand apart in the source and are kept apart here.

Experiments:
[1] = test system: MES-induced seizures; assay: Maximal Electroshock Seizure (MES) test, mice; assay type: in vivo; settings: mice, i.p.; for responders at 30 mg/kg / responders at 100 mg/kg / responders at 300 mg/kg: Mus musculus, ip
Source text: (§1) The MES test is a model for generalized tonic-clonic seizures. The seizures are highly reproducible and electrophysiologically consistent with human seizures. The test provides information about a compound's ability to prevent the spread of seizure when all neuronal circuits of the brain are maximally active. 60 Hz of alternating current (50 mA in mice, 150 mA in rats) is applied for 2 seconds via corneal electrodes that have been treated with an electrolyte solution containing an anesthetic (0.5% tetracaine HCl). Mice are tested at a variety of intervals after an i.p. injection of […] solution of the test compound (commonly in a 0.5% solution of methylcellulose) at 30, 100, and 300 mg/kg doses. Rats are examined after a 30 mg/kg (per os, p.o.) dose that is applied in a volume of 0.04 mL/g. An animal is considered “protected” from MES-induced seizures upon removal of the hind limb extensor component of the seizure.
(§2) Male and female albino CF1 mice (18-25 g, Charles River, Portage, Mich.) and male albino Sprague-Dawley rats (275-300 g, kindling test; 100-150 g all other tests; Charles River, Raleigh, N.C.) were used as experimental animals.

[2] = test system: metrazole-induced clonic seizures; assay: Subcutaneous Metrazole Seizure Threshold Test (scMET), mice; assay type: in vivo; settings: mice; for responders at 30 mg/kg / responders at 100 mg/kg / responders at 300 mg/kg: Mus musculus, sc
Protocol: (§3) The subcutaneous injection of metrazole, which is a convulsant, produces clonic seizures in laboratory animals. The scMET test is designed to identify compounds that raise the seizure threshold of an animal. Mice are pretreated with test compound at 30, 100, and 300 mg/kg doses in a similar manner to the MES test. Rats are treated with a 50 mg/kg dose (p.o.). At the previously determined TPE of the test compound, the dose of metrazole that will induce convulsions in 97% of animals (CD97: 85 mg/kg mice) is injected into the loose fold of the skin in the midline of the neck. The animals are placed in isolation cages to minimize stress and observed for the next 30 minutes for the presence or absence of seizures. An episode of clonic spasms (approximately 3-5 seconds) of the fore and/or hindlimbs, jaws or vibrissae is taken as the endpoint.
as §2

[3] = Acute toxicity, minimal motor impairment (rotorod), mice; assay type: in vivo; settings: for TOX 30 0.5 h (animals toxic/tested) / TOX 30 4 h (animals toxic/tested) / TOX 100 0.5 h (animals toxic/tested) / TOX 100 4 h (animals toxic/tested) / TOX 300 0.5 h (animals toxic/tested) / TOX 300 4 h (animals toxic/tested): mice, rotorod; for TOX 30 0.5 h (animals toxic/tested) / TOX 30 4 h (animals toxic/tested): 30 mg/kg; for TOX 100 0.5 h (animals toxic/tested) / TOX 100 4 h (animals toxic/tested): 100 mg/kg; for TOX 300 0.5 h (animals toxic/tested) / TOX 300 4 h (animals toxic/tested): 300 mg/kg; for minimal motor impairment: at same time point / dose as observed activity
Protocol: (§4) Toxicity was measured using the minimal motor impairment test described below.
Animals are monitored for overt signs of impaired neurological or muscular function to assess a compound's toxicity. In mice, the rotorod procedure is used to disclose minimal muscular or neurological impairment. When a mouse is placed on a rotating rod (6 rpm), the animal can maintain its equilibrium for long periods of time. The animal is considered toxic if it falls off the rotating rod three times during a 1 minute period. In rats, minimal motor deficit is indicated by ataxia, which is manifested by an abnormal, uncoordinated gait.

[4] = test system: electrically-induced psychomotor seizure (6 Hz); assay: Minimal Clonic Seizure (6 Hz) test, mice; assay type: in vivo; settings: i.p., 100 mg/kg
Protocol: as §4
(§5) The minimal clonic seizure (6 Hz) test, like the MES test, is used to assess a compound's ability to protect against electrically-induced seizures. The minimal clonic (6 Hz) seizure test uses a lower frequency (6 Hz) and a longer duration of stimulation (3 seconds) than the MES test. Test compounds are pre-administered to mice via i.p. injection. At varying times, individual mice (four per time point) are challenged with sufficient current via corneal electrodes to elicit a psychomotor seizure in 97% of animals (32 mA for 3 second). Untreated mice will display seizure characterized by a minimal clonic phase followed by stereotyped, automatistic behaviors described originally as being similar to the aura of human patients with partial seizures. Animals not displaying this behavior are considered to be protected.
as §2

[5] = test system: seizures; assay: In vivo anticonvulsant screening (MES, scMET, minimal clonic seizure), summary in words; parameters: species or system rat, mouse; settings: summary of Table 2
Protocol: as §4, §1, §3, §5

[6] = 30 mg/kg, 0.5 h, read-out: MES 30 0.5 h (animals protected/tested)
[7] = 30 mg/kg, 4 h, read-out: MES 30 4 h (animals protected/tested)
[8] = 100 mg/kg, 0.5 h, read-out: MES 100 0.5 h (animals protected/tested)
[9] = 100 mg/kg, 4 h, read-out: MES 100 4 h (animals protected/tested)
[10] = 300 mg/kg, 0.5 h, read-out: MES 300 0.5 h (animals protected/tested)
[11] = 300 mg/kg, 4 h, read-out: MES 300 4 h (animals protected/tested)
[12] = 30 mg/kg, 0.4 h, read-out: scMET 30 0.4 h (animals protected/tested)
[13] = 30 mg/kg, 0.5 h, read-out: scMET 30 0.5 h (animals protected/tested)
[14] = 100 mg/kg, 0.4 h, read-out: scMET 100 0.4 h (animals protected/tested)
[15] = 100 mg/kg, 0.5 h, read-out: scMET 100 0.5 h (animals protected/tested)
[16] = 300 mg/kg, 0.4 h, read-out: scMET 300 0.4 h (animals protected/tested)
[17] = 300 mg/kg, 0.5 h, read-out: scMET 300 0.5 h (animals protected/tested)

SMILES: CCOC(=O)C1[C@@H]2[C@@H](OS(N)(=O)=O)[C@@H]3O[C@H](c4ccc(OC)cc4)OC[C@H]3O[C@H]12 (stereo partly drawn) [Compound 17b, ethyl (2R,4aR,5aS,6aS,7R,7aR)-2-(4-methoxyphenyl)-7(sulfamoyloxy)hexahydro-4H-cyclopropa[5,6]pyrano[3,2-d][1,3]dioxine-6-carboxylate]
- responders at 30 mg/kg [1, 6]: 0%
- responders at 30 mg/kg [1, 7]: 0%
- responders at 100 mg/kg [1, 8]: 0%
- responders at 100 mg/kg [1, 9]: 0%
- responders at 300 mg/kg [1, 10]: 0%
- responders at 300 mg/kg [1, 11]: 0%
- responders at 30 mg/kg [2, 12]: 0%
- responders at 30 mg/kg [2, 13]: 0%
- responders at 100 mg/kg [2, 14]: 0%
- responders at 100 mg/kg [2, 15]: 0%
- responders at 300 mg/kg [2, 16]: 0%
- responders at 300 mg/kg [2, 17]: 0%
- TOX 30 0.5 h (animals toxic/tested) [3]: 0/4
- TOX 30 4 h (animals toxic/tested) [3]: 0/2
- TOX 100 0.5 h (animals toxic/tested) [3]: 0/8
- TOX 100 4 h (animals toxic/tested) [3]: 0/4
- TOX 300 0.5 h (animals toxic/tested) [3]: 2/4
- TOX 300 4 h (animals toxic/tested) [3]: 0/2
- 6 Hz 100 0.25 h (animals protected/tested) [4]: 0/4
- 6 Hz 100 0.5 h (animals protected/tested) [4]: 1/4
- 6 Hz 100 2 h (animals protected/tested) [4]: 1/4
- anticonvulsant activity [5]: anticonvulsant activity

SMILES: CCOC(=O)C1[C@@H]2[C@@H](O)[C@@H]3O[C@H](c4ccc(C(C)C)cc4)OC[C@H]3O[C@H]12 (stereo partly drawn) [Compound 20b, Ethyl (2R,4aR,5aS,6aR,7R,7aS)-7-hydroxy-2-[4-(propan-2-yl)phenyl]hexahydro-4H-cyclopropa[5.6]pyrano[3,2-d][1,3]dioxine-6-carboxylate]
- MES 30 0.5 h (animals protected/tested) ([1]; 30 mg/kg, 0.5 h): 1/5
- MES 30 4 h (animals protected/tested) ([1]; 30 mg/kg, 4 h): 0/1
- MES 100 0.5 h (animals protected/tested) ([1]; 100 mg/kg, 0.5 h): 0/7
- MES 100 4 h (animals protected/tested) ([1]; 100 mg/kg, 4 h): 0/3
- MES 300 0.5 h (animals protected/tested) ([1]; 300 mg/kg, 0.5 h): 0/1
- MES 300 4 h (animals protected/tested) ([1]; 300 mg/kg, 4 h): 0/1
- scMET 30 0.4 h (animals protected/tested) ([2]; 30 mg/kg, 0.4 h): 0/1
- scMET 30 0.5 h (animals protected/tested) ([2]; 30 mg/kg, 0.5 h): 0/1
- scMET 100 0.4 h (animals protected/tested) ([2]; 100 mg/kg, 0.4 h): 0/1
- scMET 100 0.5 h (animals protected/tested) ([2]; 100 mg/kg, 0.5 h): 0/1
- scMET 300 0.4 h (animals protected/tested) ([2]; 300 mg/kg, 0.4 h): 0/1
- scMET 300 0.5 h (animals protected/tested) ([2]; 300 mg/kg, 0.5 h): 0/1
- minimal motor impairment [3]: minimal motor impairment at the same time point
- TOX 30 0.5 h (animals toxic/tested) [3]: 1/4
- TOX 30 4 h (animals toxic/tested) [3]: 0/2
- TOX 100 0.5 h (animals toxic/tested) [3]: 0/8
- TOX 100 4 h (animals toxic/tested) [3]: 0/4
- TOX 300 0.5 h (animals toxic/tested) [3]: 0/4
- TOX 300 4 h (animals toxic/tested) [3]: 0/2
- anticonvulsant activity [5]: showed activity

SMILES: CCOC(=O)C1[C@@H]2[C@@H](O)[C@@H]3O[C@H](c4ccc(F)cc4F)OC[C@H]3O[C@H]12 (stereo partly drawn) [Compound 20d, Ethyl (2R,4aR,5aS,6aR,7R,7aS)-2-(2,4-difluorophenyl)-7-hydroxyhexahydro-4H-cyclopropa[5,6]pyrano[3,2-d][1,3]dioxine-6-carboxylate]
- responders at 30 mg/kg [1, 6]: 0%
- responders at 30 mg/kg [1, 7]: 0%
- responders at 100 mg/kg [1, 8]: 0%
- responders at 100 mg/kg [1, 9]: 0%
- responders at 300 mg/kg [1, 10]: 0%
- responders at 300 mg/kg [1, 11]: 0%
- responders at 30 mg/kg [2, 12]: 0%
- responders at 30 mg/kg [2, 13]: 0%
- responders at 100 mg/kg [2, 14]: 0%
- responders at 100 mg/kg [2, 15]: 0%
- responders at 300 mg/kg [2, 16]: 0%
- responders at 300 mg/kg [2, 17]: 0%
- minimal motor impairment [3]: minimal motor impairment at the same dose
- TOX 30 0.5 h (animals toxic/tested) [3]: 1/4
- TOX 30 4 h (animals toxic/tested) [3]: 0/2
- TOX 100 0.5 h (animals toxic/tested) [3]: 1/8
- TOX 100 4 h (animals toxic/tested) [3]: 0/4
- TOX 300 0.5 h (animals toxic/tested) [3]: 2/4
- TOX 300 4 h (animals toxic/tested) [3]: 1/2
- 6 Hz 100 0.25 h (animals protected/tested) [4]: 1/4
- 6 Hz 100 0.5 h (animals protected/tested) [4]: 0/4
- 6 Hz 100 2 h (animals protected/tested) [4]: 0/4
- anticonvulsant activity [5]: exhibited activity
